pIC50: −log10 of the molar value. Where two headings read alike, the source gives them in different places.
Legend:
AktK = AktK (Homo sapiens, UniProt P31749); experiment: Luciferase-coupled chemiluminescence kinase assay (ATP consumption); type: biochemical; details: read-out: AKT-1 IC50
How it was run: (§1)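 Enzyme at 2.5-5 nM was preincubated 30 min at room temperature with compound in Tris pH 7.5, MgCl2, TX-100, DTT, then reacted with ATP for 3 h at ambient temperature. Remaining ATP was quantified by luciferase-luciferin chemiluminescence, with consumption kept at 25-60%; […].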

p70S6K = p70S6K (Homo sapiens, UniProt P23443); experiment: as above; type: biochemical
How it was run: as §1

Chain of p70S6K (P23443 whole entry): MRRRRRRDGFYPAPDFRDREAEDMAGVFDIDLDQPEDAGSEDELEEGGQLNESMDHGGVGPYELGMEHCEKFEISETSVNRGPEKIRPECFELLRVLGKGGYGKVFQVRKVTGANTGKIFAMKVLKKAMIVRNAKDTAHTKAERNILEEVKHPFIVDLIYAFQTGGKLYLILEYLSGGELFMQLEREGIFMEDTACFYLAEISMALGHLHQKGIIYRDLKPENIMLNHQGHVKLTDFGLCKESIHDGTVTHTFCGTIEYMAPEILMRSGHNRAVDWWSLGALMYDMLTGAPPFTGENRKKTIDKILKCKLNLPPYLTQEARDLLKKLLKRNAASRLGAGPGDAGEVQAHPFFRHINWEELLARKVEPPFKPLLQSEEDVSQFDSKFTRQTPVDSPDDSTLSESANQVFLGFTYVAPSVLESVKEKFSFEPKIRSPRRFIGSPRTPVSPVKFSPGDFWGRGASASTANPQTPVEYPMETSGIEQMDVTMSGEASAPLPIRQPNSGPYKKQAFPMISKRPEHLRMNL
Chain of AktK (P31749 whole entry): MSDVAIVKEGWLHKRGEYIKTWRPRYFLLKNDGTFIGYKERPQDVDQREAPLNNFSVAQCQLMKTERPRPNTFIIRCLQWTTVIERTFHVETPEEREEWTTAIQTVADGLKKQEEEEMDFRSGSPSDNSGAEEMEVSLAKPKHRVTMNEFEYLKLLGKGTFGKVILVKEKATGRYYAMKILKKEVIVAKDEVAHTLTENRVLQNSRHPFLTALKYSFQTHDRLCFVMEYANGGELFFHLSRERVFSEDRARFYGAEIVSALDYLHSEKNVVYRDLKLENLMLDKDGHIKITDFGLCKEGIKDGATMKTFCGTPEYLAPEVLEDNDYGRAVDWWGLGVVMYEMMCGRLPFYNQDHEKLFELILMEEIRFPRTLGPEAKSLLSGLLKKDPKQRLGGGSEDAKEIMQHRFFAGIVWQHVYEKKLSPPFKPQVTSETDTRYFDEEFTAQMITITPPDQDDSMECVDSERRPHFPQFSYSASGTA

Row | pIC50 (AktK; Table 1, class symbols per key) | pIC50 (p70S6K; Table 1, class symbols per key) | pIC50 (AktK) | pIC50 (p70S6K) | Molecule
1 | 6.00 to 7.00 | > 7.00 |  |  | CCN(CC)CCOc1cc(Cl)cc(N2CCN(c3ncnc4[nH]nc(C(F)(F)F)c34)CC2)c1C [Entry 34, 2-[(5-chloro-2-methyl-3-{4-[3-(trifluoromethyl)-1H-pyrazolo[3,4-d]pyrimidin-4-yl]piperazin-1-yl}phenyl)oxy]-N,N-diethylethanamine]
2 | 5.00 to 6.00 | 6.00 to 7.00 |  |  | Brc1n[nH]c2ncnc(N3CCN(c4cccc(OCCN5CCCCC5)c4)CC3)c12 [Entry 142, 3-bromo-4-(4-{3-[(2-piperidin-1-ylethyl)oxy]phenyl}piperazin-1-yl)-1H-pyrazolo[3,4-d]pyrimidine]
3 | ≤ 5.00 | 6.00 to 7.00 |  |  | Fc1ccc(N2CCN(c3ncnc4[nH]nc(Br)c34)CC2)cc1F [Entry 76, 3-bromo-4-[4-(3,4-difluorophenyl)piperazin-1-yl]-1H-pyrazolo[3,4-d]pyrimidine]
4 | 6.00 to 7.00 | > 7.00 |  |  | Cc1c(OCCN2CCCC2)cc(Cl)cc1N1CCN(c2ncnc3[nH]nc(C(F)(F)F)c23)CC1 [Entry 39, 4-(4-{5-chloro-2-methyl-3-[(2-pyrrolidin-1-ylethyl)oxy]phenyl}piperazin-1-yl)-3-(trifluoromethyl)-1H-pyrazolo[3,4-d]pyrimidine]
5 | ≤ 5.00 | > 7.00 |  |  | Fc1ccc(F)c(N2CCN(c3ncnc4[nH]nc(Br)c34)CC2)c1 [Entry 131, 3-bromo-4-[4-(2,5-difluorophenyl)piperazin-1-yl]-1H-pyrazolo[3,4-d]pyrimidine]
6 |  |  | 5.00 to 6.00 | 5.00 to 6.00 | Cc1ccc(Cl)cc1N1CCN(c2nc(C(C)C)nc3[nH]ncc23)CC1 [Entry 326, 4-[4-(5-chloro-2-methylphenyl)piperazin-1-yl]-6-(1-methylethyl)-1H-pyrazolo[3,4-d]pyrimidine]
7 | 6.00 to 7.00 | > 7.00 |  |  | Cc1ccc(C(=O)N(C)C)cc1N1CCN(c2ncnc3[nH]nc(Br)c23)CC1 [Entry 196, 3-[4-(3-bromo-1H-pyrazolo[3,4-d]pyrimidin-4-yl)piperazin-1-yl]-N,N,4-trimethylbenzamide]
8 | > 7.00 | > 7.00 |  |  | Cc1c(NCCN2CCCC2)cc(OCC(F)(CF)CF)cc1N1CCN(c2ncnc3[nH]nc(C#CCO)c23)CC1 [Entry 288, 3-[4-(4-{5-{[2,3-difluoro-2-(fluoromethyl)pro-pyl]oxy}-2-methyl-3-[(2-pyrrolidin-1-ylethyl)a-mino]phenyl}piperazin-1-yl)-1H-pyrazolo[3,4-d]pyrimidin-3-yl]prop-2-yn-1-ol]
9 |  |  | ≤ 5.00 | 5.00 to 6.00 | Clc1ccc(N2CCN(c3ncnc4[nH]cnc34)CC2)cc1 [Entry 308, 6-[4-(4-chlorophenyl)piperazin-1-yl]-9H-purine]
10 | ≤ 5.00 | 6.00 to 7.00 |  |  | Brc1n[nH]c2ncnc(N3CCN(c4ccc(OCc5ccccc5)cc4)CC3)c12 [Entry 125, 3-bromo-4-(4-{4-[(phenylmethyl)oxy]phenyl}piperazin-1-yl)-1H-pyrazolo[3,4-d]pyrimidine]
11 | 5.00 to 6.00 | 6.00 to 7.00 |  |  | CCc1n[nH]c2ncnc(N3CCN(c4cccc(OCCN(CC)CC)c4C)CC3)c12 [Entry 32, N,N-diethyl-2-({3-[4-(3-ethyl-1H-pyrazolo[3,4-d]pyrimidin-4-yl)piperazin-1-yl]-2-methylphenyl}oxy)ethanamine]
12 |  |  | 5.00 to 6.00 | > 7.00 | Cc1ccc(Cl)cc1N1CCN(c2ncnc3[nH]nc(-c4cccs4)c23)CC1 [Entry 338, 4-[4-(5-chloro-2-methylphenyl)piperazin-1-yl]-3-(2-thienyl)-1H-pyrazolo[3,4-d]pyrimidine]
13 | ≤ 5.00 | 6.00 to 7.00 |  |  | Clc1ccc(N2CCN(c3ncnc4[nH]nc(Br)c34)CC2)cc1 [Entry 154, 3-bromo-4-[4-(4-chlorophenyl)piperazin-1-yl]-1H-pyrazolo[3,4-d]pyrimidine]
14 |  |  | 5.00 to 6.00 | 6.00 to 7.00 | CC(=O)Nc1ccc(-c2n[nH]c3ncnc(N4CCN(c5cc(Cl)ccc5C)CC4)c23)cc1 [Entry 342, N-(4-{4-[4-(5-chloro-2-methylphenyl)piperazin-1-yl]-1H-pyrazolo[3,4-d]pyrimidin-3-yl}phenyl)acetamide]
15 | ≤ 5.00 | > 7.00 |  |  | Cc1ccc(Cl)cc1N1CCN(c2ncnc3[nH]nc(Br)c23)CC1=O [Entry 183, 4-(3-bromo-1H-pyrazolo[3,4-d]pyrimidin-4-yl)-1-(5-chloro-2-methylphenyl)piperazin-2-one]
16 |  |  | ≤ 5.00 | 5.00 to 6.00 | CCc1n[nH]c2ncnc(N3CCN(c4cccc(Cl)c4)C(C(=O)NCCN4CCOCC4)C3)c12 (centres unmarked) [Entry 383, 1-(3-chlorophenyl)-4-(3-ethyl-1H-pyrazolo[3,4-d]pyrimidin-4-yl)-N-(2-morpholin-4-ylethyl)piperazine-2-carboxamide]
17 | > 7.00 | > 7.00 |  |  | 3-bromo-4-{4-[5-{[2,3-difluoro-2-(fluorometh-yl)propyl]oxy}-2-methyl-3-(3-pyrrolidin-1-ylpropyl)phenyl]piperazin-1-yl}-1H-pyrazolo[3,4-d]pyrimidine [Entry 239]
18 |  |  | 5.00 to 6.00 | 6.00 to 7.00 | Cc1ccc(Cl)cc1N1CCN(c2ncnc3[nH]nc(-c4ccc(F)cc4)c23)CC1 [Entry 357, 4-[4-(5-chloro-2-methylphenyl)piperazin-1-yl]-3-(4-fluorophenyl)-1H-pyrazolo[3,4-d]pyrimidine]
19 | ≤ 5.00 | 5.00 to 6.00 |  |  | 4-[4-(5-chloro-2-methylphenyl)piperazin-1-yl]-1H-pyrazolo[3,4-d]pyrimidin-6-amine [Entry 156]
20 |  |  | 5.00 to 6.00 | > 7.00 | COC(=O)/C=C/c1n[nH]c2ncnc(N3CCN(c4cc(Cl)ccc4C)CC3)c12 [Entry 372, methyl (2E)-3-{4-[4-(5-chloro-2-methylphenyl)piperazin-1-yl]-1H-pyrazolo[3,4-d]pyrimidin-3-yl}prop-2-enoate]
21 | 5.00 to 6.00 | 5.00 to 6.00 |  |  | O=C1COc2ccc(-c3ccnc(N4CCN(c5ncnc6[nH]nc(Br)c56)CC4)n3)cc2N1 [Entry 144, 6-{2-[4-(3-bromo-1H-pyrazolo[3,4-d]pyrimidin-4-yl)piperazin-1-yl]pyrimidin-4-yl}-2H-1,4-benzoxazin-3(4H)-one]
22 | > 7.00 | > 7.00 |  |  | CCCCC(=O)c1cc(NCCN2CCCC2)c(C)c(N2CCN(c3ncnc4[nH]nc(CC)c34)CC2)c1 [Entry 262, 1-{3-[4-(3-ethyl-1H-pyrazolo[3,4-d]pyrimidin-4-yl)piperazin-1-yl]-4-methyl-5-[(2-pyrrolidin-1-ylethyl)amino]phenyl}pentan-1-one]
23 | ≤ 5.00 | > 7.00 |  |  | Cc1cc(N2CCN(c3ncnc4[nH]nc(Br)c34)CC2)c2ccccc2n1 [Entry 120, 4-[4-(3-bromo-1H-pyrazolo[3,4-d]pyrimidin-4-yl)piperazin-1-yl]-2-methylquinoline]
24 |  |  | 5.00 to 6.00 | > 7.00 | Cc1ccc(Cl)cc1N1CCN(c2ncnc3[nH]nc(C(F)(F)F)c23)CC1 [Entry 348, 4-[4-(5-chloro-2-methylphenyl)piperazin-1-yl]-3-(trifluoromethyl)-1H-pyrazolo[3,4-d]pyrimidine]
25 | 6.00 to 7.00 | > 7.00 |  |  | Cc1ccc(Cl)cc1N1CCN(c2ncnc3[nH]nc(Br)c23)C[C@@H]1C [Entry 164, 3-bromo-4-[(3S)-4-(5-chloro-2-methylphenyl)-3-methylpiperazin-1-yl]-1H-pyrazolo[3,4-d]pyrimidine]
26 | 5.00 to 6.00 | > 7.00 |  |  | Cc1c(CCCN2CCCC2)cc(Cl)cc1N1CCN(c2ncnc3[nH]ncc23)CC1 [Entry 59, 4-{4-[5-chloro-2-methyl-3-(3-pyrrolidin-1-ylpropyl)phenyl]piperazin-1-yl}-1H-pyrazolo[3,4-d]pyrimidine]
27 | 5.00 to 6.00 | > 7.00 |  |  | COc1cc(OC)cc(N2CCN(c3ncnc4[nH]nc(Br)c34)CC2)c1 [Entry 80, 4-{4-[3,5-bis(methyloxy)phenyl]piperazin-1-yl}-3-bromo-1H-pyrazolo[3,4-d]pyrimidine]
28 |  |  | ≤ 5.00 | 5.00 to 6.00 | CCc1n[nH]c2ncnc(N3CCN(c4ccc(OCCN5CCOCC5)c(Cl)c4)CC3)c12 [Entry 345, 4-(4-{3-chloro-4-[(2-morpholin-4-ylethyl)oxy]phe-nyl}piperazin-1-yl)-3-ethyl-1H-pyrazolo[3,4-d]pyrimidine]

Row | Molecule | pIC50 (AktK; Table 1, class symbols per key) | pIC50 (p70S6K; Table 1, class symbols per key) | pIC50 (AktK) | pIC50 (p70S6K)
29 | Cc1ccc(Cl)cc1N1CCN(c2ncnc3[nH]nc(Nc4ccccc4)c23)CC1 [Entry 332, 4-[4-(5-chloro-2-methylphenyl)piperazin-1-yl]-N-phenyl-1H-pyrazolo[3,4-d]pyrimidin-3-amine] |  |  | 5.00 to 6.00 | 5.00 to 6.00
30 | N#Cc1cccnc1N1CCN(c2ncnc3[nH]nc(Br)c23)CC1 [Entry 127, 2-[4-(3-bromo-1H-pyrazolo[3,4-d]pyrimidin-4-yl)piperazin-1-yl]pyridine-3-carbonitrile] | ≤ 5.00 | 6.00 to 7.00 |  | 
31 | Cc1ccc(Cl)cc1N1CCN(c2ncnc3[nH]nc(-c4cccc(O)c4)c23)CC1 [Entry 335, 3-{4-[4-(5-chloro-2-methylphenyl)piperazin-1-yl]-1H-pyrazolo[3,4-d]pyrimidin-3-yl}phenol] |  |  | 5.00 to 6.00 | 6.00 to 7.00
32 | Cc1c(NCCN2CCCC2)cc(Cl)cc1N1CCN(c2ncnc3[nH]nc(C(C)C)c23)CC1 [Entry 138, 5-chloro-2-methyl-3-{4-[3-(1-methylethyl)-1H-pyrazolo[3,4-d]pyrimidin-4-yl]piperazin-1-yl}-N-(2-pyrrolidin-1-ylethyl)aniline] | 5.00 to 6.00 | > 7.00 |  | 
33 | Cc1ccc(Cl)cc1N1CCN(c2ncnc3[nH]nc(-c4ccc(C#N)cc4)c23)CC1 [Entry 366, 4-{4-[4-(5-chloro-2-methylphenyl)piperazin-1-yl]-1H-pyrazolo[3,4-d]pyrimidin-3-yl}benzonitrile] |  |  | 5.00 to 6.00 | 5.00 to 6.00
34 | CCc1n[nH]c2ncnc(N3CCN(c4cc(Cl)cc(CN(C)C)c4OC)CC3)c12 [Entry 377, 1-[5-chloro-3-[4-(3-ethyl-1H-pyrazolo[3,4-d]pyrimidin-4-yl)piperazin-1-yl]-2-(methyloxy)phenyl]-N,N-dimethylmethanamine] |  |  | ≤ 5.00 | 6.00 to 7.00

From patent US8076338B2, “Kinase modulators and methods of use” (Exelixis, Inc., priority 2004, dated 2011)
